What was measured:
[1] = molecular target: T1, Peroxisome proliferator-activated receptor gamma (Homo sapiens) (UniProt P37231); experiment: Binding affinity to human PPARgamma LBD expressed in Escherichia coli BL21 DE3 assessed as melting temperature at 33 uM after 2 hrs using SYPRO orange dye
T1 sequence (whole entry): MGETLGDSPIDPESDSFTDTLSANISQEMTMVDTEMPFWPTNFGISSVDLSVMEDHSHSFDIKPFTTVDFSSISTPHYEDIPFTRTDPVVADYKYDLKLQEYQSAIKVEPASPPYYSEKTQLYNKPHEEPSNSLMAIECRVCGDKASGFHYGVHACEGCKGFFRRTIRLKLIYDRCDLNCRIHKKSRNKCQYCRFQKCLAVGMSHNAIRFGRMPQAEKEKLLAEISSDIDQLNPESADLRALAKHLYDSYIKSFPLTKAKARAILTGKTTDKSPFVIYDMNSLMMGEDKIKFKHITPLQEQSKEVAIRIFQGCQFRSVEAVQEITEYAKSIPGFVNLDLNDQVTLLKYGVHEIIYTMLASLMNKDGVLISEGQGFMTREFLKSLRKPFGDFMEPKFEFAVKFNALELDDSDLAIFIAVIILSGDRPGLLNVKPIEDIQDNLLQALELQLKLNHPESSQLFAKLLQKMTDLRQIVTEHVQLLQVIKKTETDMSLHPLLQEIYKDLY

[2] = Solubility of the compound in DMSO; format: physicochemical
[3] = molecular target: T2, Peroxisome proliferator-activated receptor gamma (Homo sapiens, UniProt P37231); experiment: Displacement of fluormone from human PPARgamma LBD expressed in Escherichia coli BL21 DE3 by fluorescence polarization assay
T2 sequence (P37231 whole entry): T1 sequence (whole entry)

| SMILES | Tm [1] [°C] | solubility [2] | IC50 [3] [µM] |
| --- | --- | --- | --- |
| O=C(Nc1ccc(C(=O)O)cc1)/C(=C\c1ccc2c(c1)OCO2)NC(=O)c1ccc(Br)o1 | 46 | soluble | – |
| CN(CCOc1ccc(CC2SC(=O)NC2=O)cc1)c1ccccn1 (configuration not stated) | 49 | – | – |
| Cc1c(/C=C2\SC(Nc3cccc(C(=O)O)c3)=NC2=O)c2ccccc2n1C | 46 | soluble | – |
| CN1CCN(S(=O)(=O)c2ccc(SCC(=O)O)nc2)CC1 | – | Insoluble | – |
| COc1cccc(/C=C2\SC(=S)N(CCCC(=O)N3CCC(C(=O)O)CC3)C2=O)c1 | 49 | soluble | – |
| O=C(CN1C(=O)c2ccccc2C1=O)NCc1ccc(C(=O)O)cc1 | 46 | soluble | – |
| O=C(O)Cn1ccc2cc(OCc3ccccc3)ccc21 | 46 | soluble | – |
| O=C(O)Cn1c(SCCOc2ccc3ccccc3c2)nc2ccccc21 | 46 | soluble | 2.22 |
| Cc1ccc(Cn2c(=N)n(CC(=O)O)c3ccccc32)cc1 | 46 | soluble | – |
| O=C(O)c1ccc(COc2ccccc2C=C2C(=O)c3ccccc3C2=O)cc1 | 53 | soluble | 1.14 |
| CCOc1cc(/C=C2/SC(Nc3cccc(C(=O)O)c3)=NC2=O)ccc1OC | – | Insoluble | – |
| Cc1ccc(S(=O)(=O)Cc2noc(CCC(=O)O)n2)cc1 | 46 | soluble | – |
| O=C(O)c1ccc(-n2nnnc2SCc2ccccc2Br)cc1 | 46 | soluble | 5.13 |
| CSc1ccccc1-n1nnnc1SCC(=O)O | 46 | soluble | – |
| Cc1ccccc1Nc1nc(N)nc(CSc2nc3ccccc3c(=O)[nH]2)n1 | 46 | soluble | – |
| C[C@@H](Oc1ccc(/C=C2/C(=O)N=C(O)N(c3cccc(Br)c3)C2=O)cc1)C(=O)O | 46 | soluble | – |
